Laboratory results published in BindingDB's records for patent US10435400 (Shanghai Haiyan Pharmaceutical Technology, 2019).

Biological target: Epidermal growth factor receptor (Homo sapiens, UniProt P00533)
Test: Wild Type EGFR and Mutant EGFR Kinase Inhibition Test

Sequence of Epidermal growth factor receptor (P00533 whole entry): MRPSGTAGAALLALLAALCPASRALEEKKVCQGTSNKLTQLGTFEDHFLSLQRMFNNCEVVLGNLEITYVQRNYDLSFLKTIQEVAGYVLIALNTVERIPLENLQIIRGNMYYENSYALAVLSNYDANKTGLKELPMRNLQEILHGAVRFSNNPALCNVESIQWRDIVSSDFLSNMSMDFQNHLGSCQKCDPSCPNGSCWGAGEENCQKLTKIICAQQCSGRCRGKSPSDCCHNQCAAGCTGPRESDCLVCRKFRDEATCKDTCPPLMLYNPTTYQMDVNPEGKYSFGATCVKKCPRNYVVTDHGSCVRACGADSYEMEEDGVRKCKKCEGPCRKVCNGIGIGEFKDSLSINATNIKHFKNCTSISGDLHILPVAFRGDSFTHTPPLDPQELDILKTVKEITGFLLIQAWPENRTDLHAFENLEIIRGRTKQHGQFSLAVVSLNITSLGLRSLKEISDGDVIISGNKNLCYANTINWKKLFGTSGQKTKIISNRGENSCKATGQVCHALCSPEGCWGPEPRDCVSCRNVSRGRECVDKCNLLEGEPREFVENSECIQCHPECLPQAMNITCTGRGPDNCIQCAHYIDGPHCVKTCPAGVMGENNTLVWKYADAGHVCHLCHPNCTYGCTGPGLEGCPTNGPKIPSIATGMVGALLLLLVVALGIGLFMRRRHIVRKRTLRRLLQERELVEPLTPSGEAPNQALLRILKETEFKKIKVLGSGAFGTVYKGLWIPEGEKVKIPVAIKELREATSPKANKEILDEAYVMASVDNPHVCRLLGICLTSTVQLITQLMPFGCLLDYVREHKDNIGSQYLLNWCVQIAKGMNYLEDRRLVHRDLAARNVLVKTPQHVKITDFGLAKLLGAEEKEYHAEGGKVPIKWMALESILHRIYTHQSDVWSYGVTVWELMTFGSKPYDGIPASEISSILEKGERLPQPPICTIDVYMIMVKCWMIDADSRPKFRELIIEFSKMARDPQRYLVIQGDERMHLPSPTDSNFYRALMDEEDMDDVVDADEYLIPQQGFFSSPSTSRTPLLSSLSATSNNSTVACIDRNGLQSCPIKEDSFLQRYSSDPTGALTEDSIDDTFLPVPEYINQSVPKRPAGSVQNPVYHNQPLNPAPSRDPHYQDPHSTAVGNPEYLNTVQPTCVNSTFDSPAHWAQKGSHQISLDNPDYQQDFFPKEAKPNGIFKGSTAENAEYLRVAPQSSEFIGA

IC50: 272 nM
Structure (SMILES): C=CC(=O)Nc1cc(Nc2ncc(Cl)c(-c3cnc4c(ccn4C)c3)n2)c(OC)cc1N1CCC(N(C)C)CC1 [US10435400, Compound Z-2]
